{"source": "ChEMBL document CHEMBL5346930", "about": "“Discovery of novel N-benzylarylamide-dithiocarbamate based derivatives as dual inhibitors of tubulin polymerization and LSD1 that inhibit gastric cancers” (Eur J Med Chem, 2023)", "key": {"HGC-27": {"test_system": "HGC-27", "experiment": "Antiproliferative activity against human HGC-27 cells assessed as inhibition of cell growth incubated for 48 hrs by MTT assay", "assay_type": "functional, cell-based", "conditions": "HGC-27, 48 h"}, "A549": {"test_system": "A549", "experiment": "Antiproliferative activity against human A549 cells assessed as inhibition of cell growth incubated for 48 hrs by MTT assay", "assay_type": "functional, cell-based", "conditions": "A549, 48 h"}, "NCI-H520": {"test_system": "NCI-H520", "experiment": "Antiproliferative activity against human NCI-H520 cells assessed as inhibition of cell growth incubated for 48 hrs by MTT assay", "assay_type": "functional, cell-based", "conditions": "NCI-H520, 48 h"}, "MCF7": {"test_system": "MCF7", "experiment": "Antiproliferative activity against human MCF7 cells assessed as inhibition of cell growth incubated for 48 hrs by MTT assay", "assay_type": "functional, cell-based", "conditions": "MCF7, 48 h"}, "ECa-109 cell line": {"test_system": "ECa-109 cell line", "experiment": "Antiproliferative activity against human EC109 cells assessed as inhibition of cell growth incubated for 48 hrs by MTT assay", "assay_type": "functional, cell-based", "conditions": "ECa-109, 48 h"}, "SMMC-7721": {"test_system": "SMMC-7721", "experiment": "Antiproliferative activity against human SMMC-7721 cells assessed as inhibition of cell growth incubated for 48 hrs by MTT assay", "assay_type": "functional, cell-based", "conditions": "SMMC-7721, 48 h"}, "GES1": {"test_system": "GES1", "experiment": "Cytotoxicity against human GES1 cells assessed as reduction in cell viability at 0 to 30 nM incubated for 48 hrs by MTT assay", "assay_type": "toxicity, cell-based", "conditions": "ges1, 48 h, 0.03 µM, dose 0-30 nM"}, "Tubulin (Homo sapiens)": {"target": "Tubulin (Homo sapiens) (UniProt P68371+Q9H4B7+P0DPH7+P68366+Q13509+Q71U36+P04350+Q3ZCM7+P07437+P68363+Q9BQE3+Q6PEY2+Q13885+Q9BVA1+Q9BUF5)", "experiment": "Inhibition of tubulin polymerization in human SGC-7901 cells assessed as destruction of microtubule network incubated for 48 hrs by immunofluorescence staining based fluorescence microscopic analysis", "assay_type": "cell-based", "conditions": "dose 0-30 nmol/L"}, "[1]": {"target": "T1, Lysine-specific histone demethylase 1A (Homo sapiens, UniProt O60341)", "experiment": "Inhibition of LSD1 in human MGC-803 cells assessed as increase in H3K4me1 expression level at 0 to 24 nmol/L incubated for 48 hrs by Western blot analysis", "assay_type": "cell-based", "conditions": "dose 0-24 nmol/L"}, "[2]": {"target": "T1, Lysine-specific histone demethylase 1A", "experiment": "Inhibition of LSD1 in human SGC-7901 cells assessed as increase in H3K4me2 expression level at 0 to 30 nmol/L incubated for 48 hrs by Western blot analysis", "assay_type": "cell-based", "conditions": "dose 0-30 nmol/L"}, "[3]": {"target": "T1, Lysine-specific histone demethylase 1A", "experiment": "Inhibition of LSD1 in human SGC-7901 cells assessed as increase in H3K9me1/2 expression level at 0 to 30 nmol/L incubated for 48 hrs by Western blot analysis", "assay_type": "cell-based", "conditions": "dose 0-30 nmol/L"}, "MGC-803 [4]": {"test_system": "MGC-803", "experiment": "Induction of cell cycle arrest in human MGC-803 cells assessed as accumulation of cells at G2/M phase at 24 nmol/L incubated for 48 hrs (reference value: 33%)", "assay_type": "functional"}, "SGC-7901 [5]": {"test_system": "SGC-7901", "experiment": "Induction of cell cycle arrest in human SGC-7901 cells assessed as accumulation of cells at G2/M phase at 30 nmol/L incubated for 48 hrs (reference value: 32%)", "assay_type": "functional"}, "MGC-803 [6]": {"test_system": "MGC-803", "experiment": "Induction of cell cycle arrest in human MGC-803 cells assessed as accumulation of cells at G2/M phase incubated for 48 hrs", "assay_type": "functional, cell-based", "conditions": "dose 0-24 nmol/L"}, "MGC-803 [7]": {"test_system": "MGC-803", "experiment": "Induction of cell cycle arrest in human MGC-803 cells assessed as downregulation of Wee1 protein expression incubated for 48 hrs by Western blot analysis", "assay_type": "functional, cell-based", "conditions": "dose 0-24 nmol/L"}, "SGC-7901 [8]": {"test_system": "SGC-7901", "experiment": "Induction of cell cycle arrest in human SGC-7901 cells assessed as downregulation of Wee1 protein expression incubated for 48 hrs by Western blot analysis", "assay_type": "functional, cell-based", "conditions": "dose 0-30 nmol/L"}, "MGC-803 [9]": {"test_system": "MGC-803", "experiment": "Induction of cell cycle arrest in human MGC-803 cells assessed as downregulation of CDC2 protein expression incubated for 48 hrs by Western blot analysis", "assay_type": "functional, cell-based", "conditions": "dose 0-24 nmol/L"}, "MGC-803 [10]": {"test_system": "MGC-803", "experiment": "Induction of cell cycle arrest in human MGC-803 cells assessed as reduction in cyclin B1 protein expression incubated for 48 hrs by Western blot analysis", "assay_type": "functional, cell-based", "conditions": "dose 0-24 nmol/L"}, "SGC-7901 [11]": {"test_system": "SGC-7901", "experiment": "Induction of cell cycle arrest in human SGC-7901 cells assessed as reduction in cyclin B1 protein expression incubated for 48 hrs by Western blot analysis", "assay_type": "functional, cell-based", "conditions": "dose 0-30 nmol/L"}, "MGC-803 [12]": {"test_system": "MGC-803", "experiment": "Induction of morphological changes in human MGC-803 cells assessed as varied size of nucleus at 0 to 24 nmol/L incubated for 48 hrs by DAPI staining based analysis", "assay_type": "functional, cell-based", "conditions": "dose 0-24 nmol/L"}, "SGC-7901 [13]": {"test_system": "SGC-7901", "experiment": "Induction of morphological changes in human SGC-7901 cells assessed as varied size of nucleus at 0 to 30 nmol/L incubated for 48 hrs by DAPI staining based analysis", "assay_type": "functional, cell-based", "conditions": "dose 0-30 nmol/L"}, "SGC-7901 [14]": {"test_system": "SGC-7901", "experiment": "Induction of morphological changes in human SGC-7901 cells assessed as appearance of broken nucleus at 30 nM incubated for 48 hrs by DAPI staining based analysis", "assay_type": "functional, cell-based"}, "MGC-803 [15]": {"test_system": "MGC-803", "experiment": "Induction of apoptosis in human MGC-803 cells assessed as increase in total apoptotic cells incubated for 48 hrs by Annexin-FITC/PI staining based flow cytometry analysis", "assay_type": "functional, cell-based", "conditions": "dose 0-24 nmol/L"}, "MGC-803 [16]": {"test_system": "MGC-803", "experiment": "Induction of apoptosis in human MGC-803 cells assessed as total apoptotic cells at 24 nmol/L incubated for 48 hrs by Annexin-FITC/PI staining based flow cytometry analysis (reference value: 10.9%)", "assay_type": "functional"}, "SGC-7901 [17]": {"test_system": "SGC-7901", "experiment": "Induction of apoptosis in human SGC-7901 cells assessed as total apoptotic cells at 30 nmol/L incubated for 48 hrs by Annexin-FITC/PI staining based flow cytometry analysis (reference value: 5.9%)", "assay_type": "functional"}, "MGC-803 [18]": {"test_system": "MGC-803", "experiment": "Induction of apoptosis in human MGC-803 cells assessed as downregulation of Bcl-2 protein expression incubated for 48 hrs by Western blot analysis", "assay_type": "functional, cell-based", "conditions": "dose 0-24 nmol/L"}, "SGC-7901 [19]": {"test_system": "SGC-7901", "experiment": "Induction of apoptosis in human SGC-7901 cells assessed as downregulation of Bcl-2 protein expression incubated for 48 hrs by Western blot analysis", "assay_type": "functional, cell-based", "conditions": "dose 0-30 nmol/L"}, "SGC-7901 [20]": {"test_system": "SGC-7901", "experiment": "Induction of apoptosis in human SGC-7901 cells assessed as activation of caspase-3 at 0 to 30 nmol/L incubated for 48 hrs by Western blot analysis", "assay_type": "functional, cell-based", "conditions": "dose 0-30 nmol/L"}, "SGC-7901 [21]": {"test_system": "SGC-7901", "experiment": "Induction of apoptosis in human SGC-7901 cells assessed as increase in cleaved caspase-3 level at 0 to 30 nmol/L incubated for 48 hrs by Western blot analysis", "assay_type": "functional, cell-based", "conditions": "dose 0-30 nmol/L"}, "SGC-7901 [22]": {"test_system": "SGC-7901", "experiment": "Induction of apoptosis in human SGC-7901 cells assessed as increase in cleaved caspase-7 level at 0 to 30 nmol/L incubated for 48 hrs by Western blot analysis", "assay_type": "functional, cell-based", "conditions": "dose 0-30 nmol/L"}, "[23]": {"experiment": "Toxicity in BALB/c nude mouse xenografted with human MGC-803 cells assessed as reduction in body weight at 25 mg/kg/day, ip administered every day for 21 days", "assay_type": "organism-based", "conditions": "in vivo, 504 h, time 21 day"}, "MGC-803 [24]": {"test_system": "MGC-803", "experiment": "Antitumor activity against human MGC-803 cells xenografted in BALB/c nude mouse assessed as tumor growth inhibition at 25 mg/kg/day, ip administered every day for 21 days", "assay_type": "functional, organism-based", "conditions": "time 21.0 day"}, "MGC-803 [25]": {"test_system": "MGC-803", "experiment": "Antitumor activity against human MGC-803 cells xenografted in BALB/c nude mouse assessed as reduction in tumor volume at 25 mg/kg/day, ip administered every day for 21 days", "assay_type": "functional, organism-based", "conditions": "time 21.0 day"}, "[26]": {"experiment": "Hepatotoxicity in BALB/c nude mouse xenografted with human MGC-803 cells assessed as effect on ALT level at 25 mg/kg/day, ip administered every day for 21 days", "assay_type": "toxicity, organism-based", "conditions": "in vivo, 504 h, time 21 day"}, "MGC-803 [27]": {"test_system": "MGC-803", "experiment": "cells", "conditions": "Homo sapiens, MGC-803, 48 h", "description": "Antiproliferative activity against human MGC-803 cells assessed as inhibition of cell growth incubated for 48 hrs by MTT assay"}, "KYSE-450": {"test_system": "KYSE-450", "experiment": "cells", "conditions": "Homo sapiens, KYSE-450, 48 h", "description": "Antiproliferative activity against human KYSE-450 cells assessed as inhibition of cell growth incubated for 48 hrs by MTT assay"}}, "note": "The source made the active and inactive calls. The calls are words filed in the database; no cut-off is given here.", "data": [{"compound": "COc1ccc(CN(C(=O)CSC(=S)N2CCN(c3ccc(N)cc3)CC2)c2cc(OC)c(OC)c(OC)c2)cc1O", "values": [{"measurement": "IC50", "setting": "HGC-27", "value": 24.5, "unit": "nM"}, {"measurement": "IC50", "setting": "A549", "value": 254, "unit": "nM"}, {"measurement": "IC50", "setting": "NCI-H520", "value": 22.5, "unit": "nM"}, {"measurement": "IC50", "setting": "MCF7", "value": 34.4, "unit": "nM"}, {"measurement": "IC50", "setting": "ECa-109 cell line", "value": 114, "unit": "nM"}, {"measurement": "IC50", "setting": "SMMC-7721", "value": 27, "unit": "nM"}, {"measurement": "Activity", "setting": "GES1", "value": "Non-Toxic"}, {"measurement": "inhibition", "setting": "Tubulin (Homo sapiens)", "value": "Dose-Dependent Effect"}, {"measurement": "inhibition", "setting": "[1]", "value": "Active"}, {"measurement": "inhibition", "setting": "[2]", "value": "Active"}, {"measurement": "inhibition", "setting": "[3]", "value": "Active"}, {"measurement": "Activity", "setting": "MGC-803 [4]", "value": 60, "unit": "%"}, {"measurement": "Activity", "setting": "SGC-7901 [5]", "value": 74, "unit": "%"}, {"measurement": "Activity", "setting": "MGC-803 [6]", "value": "Dose-Dependent Effect"}, {"measurement": "Activity", "setting": "MGC-803 [7]", "value": "Dose-Dependent Effect"}, {"measurement": "Activity", "setting": "SGC-7901 [8]", "value": "Dose-Dependent Effect"}, {"measurement": "Activity", "setting": "MGC-803 [9]", "value": "Dose-Dependent Effect"}, {"measurement": "Activity", "setting": "MGC-803 [10]", "value": "Dose-Dependent Effect"}, {"measurement": "Activity", "setting": "SGC-7901 [11]", "value": "Dose-Dependent Effect"}, {"measurement": "Activity", "setting": "MGC-803 [12]", "value": "Active"}, {"measurement": "Activity", "setting": "SGC-7901 [13]", "value": "Active"}, {"measurement": "Activity", "setting": "SGC-7901 [14]", "value": "Active"}, {"measurement": "Activity", "setting": "MGC-803 [15]", "value": "Dose-Dependent Effect"}, {"measurement": "Activity", "setting": "MGC-803 [16]", "value": 85.5, "unit": "%"}, {"measurement": "Activity", "setting": "SGC-7901 [17]", "value": 75.4, "unit": "%"}, {"measurement": "Activity", "setting": "MGC-803 [18]", "value": "Dose-Dependent Effect"}, {"measurement": "Activity", "setting": "SGC-7901 [19]", "value": "Dose-Dependent Effect"}, {"measurement": "Activity", "setting": "SGC-7901 [20]", "value": "Active"}, {"measurement": "Activity", "setting": "SGC-7901 [21]", "value": "Active"}, {"measurement": "Activity", "setting": "SGC-7901 [22]", "value": "Active"}, {"measurement": "Activity", "setting": "[23]", "value": "Non-Toxic"}, {"measurement": "Activity", "setting": "MGC-803 [24]", "value": "Active"}, {"measurement": "Activity", "setting": "MGC-803 [25]", "value": "Active"}, {"measurement": "Activity", "setting": "[26]", "value": "Non-Toxic"}, {"measurement": "IC50", "setting": "MGC-803 [27]", "value": 17, "unit": "nM"}, {"measurement": "IC50", "setting": "KYSE-450", "value": 30, "unit": "nM"}]}]}
